In ChEMBL document CHEMBL5375968, “Peptide TK-HR from the Skin of Chinese Folk Medicine Frog Hoplobatrachus Rugulosus Accelerates Wound Healing via the Activation of the Neurokinin-1 Receptor” (J Med Chem, 2023):
Activity calls are given as the source filed them. No cut-off for these calls is given here. Residues, ends and D or L forms follow the SMILES beside them.

Key:
Neutrophil [1] = assay: Induction of chemotaxis in BALB/c mouse neutrophils assessed as increase in ratio of cell polarization at 100 nM measured for 15 mins by Zigmond-chamber based microscopy (reference value: 14.6 %); format: functional; conditions: 0.25 h
Neutrophil [2] = assay: Induction of ROS production in BALB/c mouse neutrophils at 100 nM incubated for 2 hrs by DCFH-DA staining based analysis; format: functional, cell-based
[3] = Drug uptake in BALB/c mouse neutrophils by flow cytometry; format: ADME, cell-based; conditions: neutrophil, dose 2.5-40 µM
HaCaT [4] = assay: Drug uptake in human HaCaT cells incubated for 30 mins by flow cytometry; format: functional, cell-based; conditions: dose 5-20 µM
HaCaT [5] = assay: Drug uptake in Aprepitant-treated human HaCaT cells 5 to 20 uM incubated for 30 mins by flow cytometry; format: functional, cell-based; conditions: dose 5-20 µM
[6] = Drug uptake in Aprepitant-treated HUVEC cells at 5 to 20 uM incubated for 30 mins by flow cytometry; format: ADME, cell-based; conditions: human, 0.5 h, dose 5-20 µM
[7] = Drug uptake in Aprepitant-treated mouse RAW264.7 cells at 20 uM incubated for 30 mins by flow cytometry; format: ADME, cell-based; conditions: raw264.7, 0.5 h
[8] = Drug uptake in HUVEC cells incubated for 30 mins by flow cytometry; format: ADME, cell-based; conditions: human, 0.5 h, dose 5-20 µM
[9] = Drug uptake in Aprepitant-treated BALB/c mouse neutrophils at 20 uM incubated for 30 mins by flow cytometry; format: ADME, cell-based; conditions: neutrophil, 0.5 h
[10] = Drug uptake in mouse RAW264.7 cells by flow cytometry; format: ADME, cell-based; conditions: dose 2.5-40 µM

## CSCC[C@H](NC=O)C(=O)N[C@@H](CC(C)C)C(=O)N[C@@H](Cc1ccccc1)C(=O)O
Neutrophil [1]
  Activity: 56.3%

## CCCCCCCCCCCCCC(=O)O[C@@H]1[C@@H](C)[C@]2(O)[C@@H](C=C(CO)C[C@]3(O)C(=O)C(C)=C[C@@H]23)[C@@H]2C(C)(C)[C@]12OC(C)=O
Neutrophil [2]
  Activity: Active

## CSCC[C@H](NC(=O)[C@H](CC(C)C)NC(=O)CNC(=O)[C@H](Cc1ccc(O)cc1)NC(=O)[C@H](Cc1ccccc1)NC(=O)[C@H](CCCNC(=N)N)NC(=O)[C@H](CC(=O)O)NC(=O)[C@@H]1CCCN1C(=O)[C@H](CC(N)=O)NC(=O)[C@@H]1CCCN1C(=O)[C@H](CCCCN)NC(=S)Nc1ccc(-c2c3ccc(=O)cc-3oc3cc(O)ccc23)c(C(=O)O)c1)C(N)=O (HELM PEPTIDE1{[O=C(O)c1cc(NC(=S)[*:2])ccc1-c1c2ccc(=O)cc-2oc2cc(O)ccc12].K.P.N.P.D.R.F.Y.G.L.M.[am]}$$$$V2.0)
[3]
  Drug uptake: Dose-Dependent Effect
HaCaT [4]
  Drug uptake: Dose-Dependent Effect
HaCaT [5]
  Drug uptake: inactive
[6]
  Drug uptake: Not Active
[7]
  Drug uptake: Not Active
[8]
  Drug uptake: Dose-Dependent Effect
[9]
  Drug uptake: Not Active
[10]
  Drug uptake: Dose-Dependent Effect
